Source: ChEMBL document CHEMBL5226321, “Ivermectin: A Promising Therapeutic for Fighting Malaria. Current Status and Perspective” (J Med Chem, 2021)

Legend:
[1] = test system: Anopheles sp.; experiment: In vitro Insecticidal in Anopheles sp. assessed as lethality membrane-fed with compound treated human blood at 400 microg/kg per day in presence of combination of 120 mg dihydroartemisinin, 960 mg piperaquine and 30 mg primaquine observed after 7 days; format: functional, organism-based; settings: dose 400.0 µg/kg, time 7.0 day
[2] = test system: Anopheles gambiae; experiment: Insecticidal in Anopheles gambiae assessed as mean survival fed with blood of compound treated human at 200 microg/kg relative to control; format: functional, organism-based; settings: dose 200.0 µg/kg
[3] = test system: Anopheles arabiensis; experiment: Insecticidal in Anopheles arabiensis assessed as reduction in survival rate fed with blood of compound treated human observed for […] relative to control; format: functional, organism-based
[4] = test system: Anopheles stephensi; experiment: Insecticidal in Anopheles stephensi assessed as mortality rate with blood of compound treated mouse at 82 microg/kg observed within 36 hrs relative to control; format: functional, organism-based; settings: dose 82.0 µg/kg
[5] = test system: Anopheles sp.; experiment: Insecticidal in Anopheles sp. infected with Plasmodium falciparum gametocytes assessed as reduction in survival fed with compound treated bovine blood at 200 microg/kg feeding at 15 days after injection relative to control; format: functional, organism-based; settings: dose 200.0 µg/kg
[6] = test system: Anopheles sp.; experiment: Insecticidal in Anopheles sp. infected with Plasmodium falciparum gametocytes assessed as mortality fed with compound treated bovine blood at 200 microg/kg observed within 4 days feeding at 7 days post treatment relative to control; format: functional, organism-based; settings: dose 200.0 µg/kg, time 4.0 day
[7] = test system: Anopheles sp.; experiment: Insecticidal in Anopheles sp. assessed as mortality rate fed with blood of compound treated human at 200 microg/kg administered once caught on day 3 after mass drug administration observed within 5 days relative to control; format: functional, organism-based; settings: dose 200.0 µg/kg, time 5.0 day
[8] = test system: Anopheles sp.; experiment: Insecticidal in Anopheles sp. infected with Plasmodium falciparum gametocytes assessed as reduction in survival fed with compound treated bovine blood at 200 microg/kg feeding at 7 days after injection relative to control; format: functional, organism-based; settings: dose 200.0 µg/kg
[9] = test system: Anopheles minimus; experiment: Insecticidal in Anopheles minimus assessed as lethal concentration membrane-fed with compound treated human blood at 200 microg/kg observed for 7 days; format: functional, organism-based; settings: dose 200.0 µg/kg, time 7.0 day
[10] = test system: Anopheles sp.; experiment: Insecticidal in Anopheles sp. infected with Plasmodium falciparum gametocytes assessed as mortality fed with compound treated bovine blood at 200 microg/kg observed within 5.5 days feeding at 15 days post treatment relative to control; format: functional, organism-based; settings: dose 200.0 µg/kg, time 5.5 day
[11] = test system: Anopheles sp.; experiment: Insecticidal in Anopheles sp. assessed as percentage survival fed with blood of compound treated human at 250 microg/kg administered once and observed for 3 days relative to control; format: functional, organism-based; settings: dose 250.0 µg/kg, time 3.0 day
[12] = test system: Anopheles sp.; experiment: Insecticidal in Anopheles sp. assessed as mortality rate fed with blood of compound treated human at 200 microg/kg administered once caught on day 2 after mass drug administration observed within 5 days relative to control; format: functional, organism-based; settings: dose 200.0 µg/kg, time 5.0 day
[13] = test system: Anopheles minimus; experiment: In vitro Insecticidal in Anopheles minimus assessed as lethality membrane-fed with compound treated human blood at 400 microg/kg per day in presence of combination of 120 mg dihydroartemisinin, 960 mg piperaquine and 30 mg primaquine observed after 7 days; format: functional, organism-based; settings: dose 400.0 µg/kg, time 7.0 day
[14] = test system: Anopheles sp.; experiment: Insecticidal in Anopheles sp. assessed as lethal concentration fed with compound treated human blood administered as a single dose at 10 microg/ml fed at 4 hrs post treatment; format: functional, organism-based; settings: dose 10.0 µg/ml
[15] = test system: Anopheles arabiensis; experiment: Insecticidal in Anopheles arabiensis assessed as mean survival fed with blood of compound treated human at 12 mg, administered as a single dose observed at 2 days post treatment; format: functional, organism-based; settings: time 2.0 day
[16] = test system: Plasmodium berghei; experiment: In vivo antimalarial activity against blood stage Plasmodium berghei transfected with GFP infected in mouse assessed as supression of parasitemia at 0.5 mg/kg for 3 days relative to control; format: functional, organism-based; settings: time 3.0 day
[17] = test system: Anopheles sp.; experiment: Insecticidal in Anopheles sp. assessed as lethal concentration membrane-fed with compound treated blood observed after 4 days; format: functional, organism-based; settings: time 4.0 day
[18] = test system: Anopheles sp.; experiment: Insecticidal in Anopheles sp. assessed as lethal concentration membrane-fed with compound treated pig blood; format: functional
[19] = test system: Culex quinquefasciatus; experiment: Insecticidal in Culex quinquefasciatus assessed as mortality rate membrane-fed with compound treated human blood at 10 to 100 microg/mL observed within 7 days relative to control; format: functional, organism-based; settings: dose 10-100 µg/ml, time 7.0 day
[20] = test system: Anopheles gambiae; experiment: Insecticidal in Anopheles gambiae assessed as mortality fed with compound treated bovine blood at 6 ng/mL observed for 10 days relative to control; format: functional, organism-based; settings: time 10.0 day
[21] = test system: Anopheles gambiae; experiment: Insecticidal in Anopheles gambiae assessed as mortality fed with compound treated bovine blood at 600 microg/kg observed for 10 days; format: functional, organism-based; settings: dose 600.0 µg/kg, time 10.0 day
[22] = test system: Anopheles sp.; experiment: Insecticidal in Anopheles sp. assessed as mortality rate membrane-fed with blood of compound treated mouse at 600 microg/kg observed within 6 days relative to control; format: functional, organism-based; settings: dose 600.0 µg/kg, time 6.0 day
[23] = test system: Anopheles gambiae; experiment: Insecticidal in Anopheles gambiae assessed as mortality fed with compound treated pig plasma at 20 ng/mL observed for 10 days relative to control; format: functional, organism-based; settings: time 10.0 day
[24] = test system: Anopheles stephensi; experiment: Insecticidal in Anopheles stephensi larvae measured after 48 hrs; format: functional
[25] = test system: Anopheles sp.; experiment: Insecticidal in Anopheles sp. infected with Plasmodium falciparum gametocytes assessed as reduction in survival fed with compound treated bovine blood at 200 microg/kg feeding at 28 days after injection relative to control; format: functional, organism-based; settings: dose 200.0 µg/kg
[26] = test system: Anopheles arabiensis; experiment: Insecticidal in Anopheles arabiensis assessed as lethal concentration membrane-fed with compound treated bovine blood; format: functional
[27] = test system: Culex quinquefasciatus; experiment: Insecticidal in Culex quinquefasciatus assessed as mortality rate fed with blood of compound treated mouse at […], sc before 12 hrs and observed after 36 hrs relative to control; format: functional, organism-based
[28] = test system: Anopheles sp.; experiment: Insecticidal in Anopheles sp. infected with Plasmodium falciparum gametocytes assessed as reduction in fecundity fed with compound treated bovine blood at 200 microg/kg feeding at 21 days after injection relative to control; format: functional, organism-based; design: scale not given: the % may be the effect or the level left; settings: dose 200.0 µg/kg
[29] = test system: Plasmodium berghei; experiment: In vivo antimalarial activity against liver stage Plasmodium berghei infected in mouse assessed as increase in mouse survival days at 10 mg/kg; format: functional, organism-based
[30] = test system: Aedes aegypti; experiment: Insecticidal in Aedes aegypti assessed as mortality rate fed with blood of compound treated mouse at 83 mg/kg, sc before 12 hrs and observed after 36 hrs relative to control; format: functional, organism-based
[31] = test system: Anopheles sp.; experiment: Insecticidal in Anopheles sp. assessed as mortality rate fed with blood of compound treated human at 200 microg/kg administered once caught on day 1 after mass drug administration observed within 5 days relative to control; format: functional, organism-based; settings: dose 200.0 µg/kg, time 5.0 day
[32] = test system: Anopheles darlingi; experiment: Insecticidal in Anopheles darlingi infected with Plasmodium vivax assessed as lethal concentration fed with compound treated human blood observed for 7 days; format: functional, organism-based; settings: time 7.0 day
[33] = test system: Plasmodium vivax; experiment: Antimalarial activity against Plasmodium vivax assessed as reduction in […] in Anopheles sp. mosquito fed with blood containing plasma isolated from compound treated human observed after 4 days relative to control; format: functional, organism-based; settings: time 4.0 day, dose or concentration not given here
[34] = test system: Anopheles stephensi; experiment: Insecticidal in Anopheles stephensi assessed as lethal concentration membrane-fed with compound treated blood observed after 4 days; format: functional, organism-based; settings: time 4.0 day
[35] = test system: Aedes aegypti; experiment: Insecticidal in Aedes aegypti assessed as mortality rate membrane-fed with compound treated human blood at 10 to 100 microg/mL observed within 7 days relative to control; format: functional, organism-based; settings: dose 10-100 µg/ml, time 7.0 day
[36] = test system: Anopheles sp.; experiment: Insecticidal in Anopheles sp. infected with Plasmodium falciparum gametocytes assessed as reduction in fecundity fed with compound treated bovine blood at 200 microg/kg feeding at 28 days after injection relative to control; format: functional, organism-based; design: scale not given: the % may be the effect or the level left; settings: dose 200.0 µg/kg

Work on IVERMECTIN yielded an LC50 [1] of 0.0576 µg/mL, a Survival [2] of 2.3 days and a Survival [3] of 50%. The mortality [4] was 100%, the Survival [5] was 77% and the mortality [6] was 100%. The mortality [7] was 68%, the Survival [8] was 83% and the LC50 [9] was 0.0264 µg/mL. For the same sequence, the mortality [10] was 100%, the Survival [11] was 20% and the mortality [12] was 80%. It also gave an LC50 [13] of 0.0147 µg/mL, an LC5 [14] of 18.3 ng/mL and a Survival [15] of 2.1 days. For the same sequence, the Activity [16] was 40%, the LC50 [17] was 1.47 µg/mL and the LC50 [18] was 0.0178 µg/mL. It also gave a mortality [19] of 100%, a mortality [20] of 50% and a mortality [21] of 90%. For the same sequence, the mortality [22] was 44%, the mortality [23] was 50% and the LC50 [24] was 5.85 ppb. For the same sequence, the Survival [25] was 23%, the LC50 [26] was 7.79 ppb and the mortality [27] was 50%. It also gave an Activity [28] of 33%, a Survival [29] of 10 days and a mortality [30] of 60%. It also gave a mortality [31] of 75%, an LC5 [32] of 14.8 ng/mL and an LC25 [32] of 0.0278 µg/mL. It also gave an LC50 [32] of 0.0432 µg/mL, an inhibition [33] of 99.9% and an LC50 [34] of 0.007 µg/mL. For the same sequence, the mortality [35] was 100% and the Activity [36] was 20%.
